Test results from US12435044B2, “Pyridazinone herbicides and pyridazinone intermediates used to prepare a herbicide” (FMC Corporation, priority 2018, dated 2025).

Columns and labels:
Assay type in all cases: in vivo
[1] = system: barnyardgrass (Echinochloa crus-galli); experiment: Test C pre-/postemergence greenhouse test; settings: scale 0 to 100
How it was run: (§1)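 Test chemicals were formulated in a non-phytotoxic solvent mixture with surfactant and applied preemergence to seeds in silt loam soil or postemergence to plants of 2 to 18 cm in a peat/vermiculite medium. After 13 to 21 d in a greenhouse, response was visually scored from 0 (no effect) to 100 (complete control).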

[2] = system: blackgrass (Alopecurus myosuroides); experiment: Test C pre-/postemergence greenhouse test; settings: scale 0 to 100
How it was run: as §1

[3] = system: morningglory (Ipomoea coccinea); experiment: Test C pre-/postemergence greenhouse test; settings: scale 0 to 100
How it was run: as §1

oat, wild (Avena fatua) = experiment: Test C pre-/postemergence greenhouse test; settings: scale 0 to 100
How it was run: as §1

[4] = system: oilseed rape (Brassica napus); experiment: Test C pre-/postemergence greenhouse test; settings: scale 0 to 100
How it was run: as §1

[5] = system: ragweed (common ragweed, Ambrosia elatior); experiment: Test C pre-/postemergence greenhouse test; settings: scale 0 to 100
How it was run: as §1

[6] = system: velvetleaf (Abutilon theophrasti); experiment: Test C pre-/postemergence greenhouse test; settings: scale 0 to 100
How it was run: as §1

[7] = system: waterhemp (common waterhemp, Amaranthus rudis); experiment: Test C pre-/postemergence greenhouse test; settings: scale 0 to 100
How it was run: as §1

[8] = system: wheat, winter (winter wheat, Triticum aestivum); experiment: Test C pre-/postemergence greenhouse test; settings: scale 0 to 100
How it was run: as §1

[9] = system: barnyardgrass (Echinochloa crus-galli); experiment: Test C flooded paddy test; settings: Flood, scale 0 to 100
Source text: (§2) Plant species in the flooded paddy test consisted of rice (transplanted and water seeded, Oryza sativa), sedge, umbrella (small-flower umbrella sedge, Cyperus difformis), ducksalad (Heteranthera limosa), Bulrush, Japanese (Scirpus juncoides) and barnyardgrass (Echinochloa crus-galli) grown to the 2-leaf stage for testing. At time of treatment, test pots were flooded to 3 cm above the soil surface, treated by application of test compounds directly to the paddy water, and then maintained at that water depth for the duration of the test. Treated plants and controls were maintained in a greenhouse for 13 to 15 d, after which time all species were compared to controls and visually evaluated. Plant response ratings, summarized in Table C are based on a scale of 0 to 100 where 0 is no effect and 100 is complete control. A dash (-) response means no test result.

[10] = system: ducksalad (Heteranthera limosa); experiment: Test C flooded paddy test; settings: Flood, scale 0 to 100
Source text: as §2

[11] = system: rice (transplanted and water seeded, Oryza sativa); experiment: Test C flooded paddy test; settings: Flood, scale 0 to 100
Source text: as §2

[12] = system: sedge, umbrella (small-flower umbrella sedge, Cyperus difformis); experiment: Test C flooded paddy test; settings: Flood, scale 0 to 100
Source text: as §2

Cc1cc(Cl)c2ccccc2c1-c1c(O)c(Cl)nn(C)c1=O [Cpd. No. 65]
98: Plant response rating, Morningglory ([3]; Postemergence, 16 g ai/ha) | Plant response rating, Morningglory ([3]; Preemergence, 62 g ai/ha) | Plant response rating, Oat, Wild (oat, wild (Avena fatua); Postemergence, 16 g ai/ha) | Plant response rating, Oilseed Rape ([4]; Preemergence, 62 g ai/ha) | Plant response rating, Ragweed ([5]; Postemergence, 16 g ai/ha) | Plant response rating, Ragweed ([5]; Postemergence, 62 g ai/ha) | Plant response rating, Ragweed ([5]; Postemergence, 125 g ai/ha) | Plant response rating, Ragweed ([5]; Preemergence, 62 g ai/ha)
95: Plant response rating, Blackgrass ([2]; Postemergence, 125 g ai/ha) | Plant response rating, Morningglory ([3]; Preemergence, 125 g ai/ha) | Plant response rating, Oilseed Rape ([4]; Postemergence, 16 g ai/ha) | Plant response rating, Ragweed ([5]; Preemergence, 31 g ai/ha) | Plant response rating, Waterhemp ([7]; Postemergence, 62 g ai/ha) | Plant response rating, Waterhemp ([7]; Postemergence, 125 g ai/ha) | Plant response rating, Waterhemp ([7]; Preemergence, 125 g ai/ha) | Plant response rating, Wheat ([8]; Postemergence, 31 g ai/ha) | Plant response rating, Wheat ([8]; Postemergence, 62 g ai/ha) | Plant response rating, Wheat ([8]; Postemergence, 125 g ai/ha) | Plant response rating, Ducksalad ([10]; 31 g ai/ha) | Plant response rating, Sedge, Umbrella ([12]; 31 g ai/ha)
30: Plant response rating, Oat, Wild (oat, wild (Avena fatua); Preemergence, 61 g ai/ha) | Plant response rating, Wheat ([8]; Preemergence, 61 g ai/ha) | Plant response rating, Barnyardgrass ([9]; 125 g ai/ha)
80: Plant response rating, Barnyardgrass ([1]; Postemergence, 16 g ai/ha) | Plant response rating, Waterhemp ([7]; Postemergence, 16 g ai/ha) | Plant response rating, Waterhemp ([7]; Preemergence, 61 g ai/ha) | Plant response rating, Wheat ([8]; Preemergence, 62 g ai/ha)
10: Plant response rating, Barnyardgrass ([1]; Preemergence, 61 g ai/ha) | Plant response rating, Blackgrass ([2]; Preemergence, 61 g ai/ha) | Plant response rating, Barnyardgrass ([9]; 62 g ai/ha) | Plant response rating, Rice, Water Seeded ([11]; 125 g ai/ha)
40: Plant response rating, Oat, Wild (oat, wild (Avena fatua); Preemergence, 62 g ai/ha) | Plant response rating, Velvetleaf ([6]; Postemergence, 16 g ai/ha) | Plant response rating, Velvetleaf ([6]; Preemergence, 61 g ai/ha)
85: Plant response rating, Barnyardgrass ([1]; Postemergence, 31 g ai/ha) | Plant response rating, Blackgrass ([2]; Preemergence, 125 g ai/ha) | Plant response rating, Velvetleaf ([6]; Postemergence, 31 g ai/ha) | Plant response rating, Waterhemp ([7]; Preemergence, 62 g ai/ha)
55: Plant response rating, Blackgrass ([2]; Postemergence, 16 g ai/ha) | Plant response rating, Blackgrass ([2]; Preemergence, 62 g ai/ha) | Plant response rating, Morningglory ([3]; Preemergence, 61 g ai/ha)
35: Plant response rating, Oat, Wild (oat, wild (Avena fatua); Preemergence, 31 g ai/ha)
100: Plant response rating, Barnyardgrass ([1]; Postemergence, 62 g ai/ha) | Plant response rating, Barnyardgrass ([1]; Postemergence, 125 g ai/ha) | Plant response rating, Morningglory ([3]; Postemergence, 31 g ai/ha) | Plant response rating, Morningglory ([3]; Postemergence, 62 g ai/ha) | Plant response rating, Morningglory ([3]; Postemergence, 125 g ai/ha) | Plant response rating, Oat, Wild (oat, wild (Avena fatua); Postemergence, 31 g ai/ha) | Plant response rating, Oat, Wild (oat, wild (Avena fatua); Postemergence, 62 g ai/ha) | Plant response rating, Oat, Wild (oat, wild (Avena fatua); Postemergence, 125 g ai/ha) | Plant response rating, Oilseed Rape ([4]; Postemergence, 31 g ai/ha) | Plant response rating, Oilseed Rape ([4]; Postemergence, 62 g ai/ha) | Plant response rating, Oilseed Rape ([4]; Postemergence, 125 g ai/ha) | Plant response rating, Oilseed Rape ([4]; Preemergence, 125 g ai/ha) | Plant response rating, Ragweed ([5]; Postemergence, 31 g ai/ha) | Plant response rating, Ragweed ([5]; Preemergence, 125 g ai/ha) | Plant response rating, Velvetleaf ([6]; Postemergence, 62 g ai/ha) | Plant response rating, Velvetleaf ([6]; Postemergence, 125 g ai/ha) | Plant response rating, Velvetleaf ([6]; Preemergence, 125 g ai/ha) | Plant response rating, Barnyardgrass ([9]; 250 g ai/ha) | Plant response rating, Ducksalad ([10]; 62 g ai/ha) | Plant response rating, Ducksalad ([10]; 125 g ai/ha) | Plant response rating, Ducksalad ([10]; 250 g ai/ha) | Plant response rating, Sedge, Umbrella ([12]; 62 g ai/ha) | Plant response rating, Sedge, Umbrella ([12]; 125 g ai/ha) | Plant response rating, Sedge, Umbrella ([12]; 250 g ai/ha)
65: Plant response rating, Ragweed ([5]; Preemergence, 61 g ai/ha)
5: Plant response rating, Blackgrass ([2]; Preemergence, 31 g ai/ha) | Plant response rating, Oilseed Rape ([4]; Preemergence, 31 g ai/ha) | Plant response rating, Oilseed Rape ([4]; Preemergence, 61 g ai/ha)
70: Plant response rating, Rice, Transplanted ([11]; 250 g ai/ha)
0: Plant response rating, Barnyardgrass ([9]; 31 g ai/ha) | Plant response rating, Rice, Transplanted ([11]; 31 g ai/ha) | Plant response rating, Rice, Transplanted ([11]; 62 g ai/ha)
90: Plant response rating, Blackgrass ([2]; Postemergence, 31 g ai/ha) | Plant response rating, Blackgrass ([2]; Postemergence, 62 g ai/ha) | Plant response rating, Morningglory ([3]; Preemergence, 31 g ai/ha) | Plant response rating, Waterhemp ([7]; Postemergence, 31 g ai/ha) | Plant response rating, Wheat ([8]; Postemergence, 16 g ai/ha) | Plant response rating, Wheat ([8]; Preemergence, 125 g ai/ha)
60: Plant response rating, Barnyardgrass ([1]; Preemergence, 62 g ai/ha) | Plant response rating, Oat, Wild (oat, wild (Avena fatua); Preemergence, 125 g ai/ha) | Plant response rating, Velvetleaf ([6]; Preemergence, 31 g ai/ha) | Plant response rating, Wheat ([8]; Preemergence, 31 g ai/ha)
20: Plant response rating, Barnyardgrass ([1]; Preemergence, 31 g ai/ha) | Plant response rating, Rice, Transplanted ([11]; 125 g ai/ha)
75: Plant response rating, Barnyardgrass ([1]; Preemergence, 125 g ai/ha) | Plant response rating, Velvetleaf ([6]; Preemergence, 62 g ai/ha) | Plant response rating, Waterhemp ([7]; Preemergence, 31 g ai/ha)
